The values below come from US5115096A, “Amphiregulin: a bifunctional growth modulating glycoprotein” (Oncogen, priority 1989, dated 1992).

Holding throughout (format): cell-based, human
The subject of series [1] is AR RNA in MCF-7 (HTB 22) cells. As to the kind of experiment: Northern blot of AR RNA in MCF-7 cells. An excerpt:
c-AMP is another regulatory molecule which exerts diverse effects on cells, primarily through cAMP-dependent protein kinase A. Intracellular levels of cAMP are regulated by a combination of receptor-mediated activation and adenylate cyclase inhibition. Some studies indicate that TPA and cAMP induced gene expression may converge as a common pathway. To study the regulation of AR gene expression, we chose to look at the effect of various activators or inhibitors of both these regulatory pathways on the production of AR specific RNA in MCF-7 cells.
Forskolin is a drug which activates adenylate cyclase, resulting in increased intracellular cAMP.
Ten or twenty μg of total RNA was electrophoresed on 1.2% agarose/formaldehyde gels for Northern analysis. The agarose/formaldehyde gels were prepared in 40 mM N-morpholinopropanesulfonic acid (MOPS), pH 7.0/1 mM EDTA/10 mM sodium acetate/2/2 M deionized formaldehyde (pH5.6) in an IBI VCV gel apparatus with frosted plates. RNA was denatured in the same buffer with 50% formamide at 65° C., and run in 1×MOPS, at 20-30 mA for 3-5 hr. […] Bands were scored as (+) if clearly visible after overnight exposure, (+/-) if visible after 3 day exposure, and (++) if detectable after 6 hr. […]

In series [2] the test system is AR RNA in BT-474 (HTB 20) cells. In words: Northern blot of AR RNA, tumor cell line panel. On the set-up: key: +: clearly visible after overnight exposure; +/-: visible after 3 day exposure; ++: detectable after 6 hr. As to conditions: 24 hour induction with TPA. The procedure:
(§1) Ten or twenty μg of total RNA was electrophoresed on 1.2% agarose/formaldehyde gels for Northern analysis. The agarose/formaldehyde gels were prepared in 40 mM N-morpholinopropanesulfonic acid (MOPS), pH 7.0/1 mM EDTA/10 mM sodium acetate/2/2 M deionized formaldehyde (pH5.6) in an IBI VCV gel apparatus with frosted plates. RNA was denatured in the same buffer with 50% formamide at 65° C., and run in 1×MOPS, at 20-30 mA for 3-5 hr. The gel was rinsed in 10×SSC for 30 min and transferred to Hybond-N membranes (Amersham), UV-crosslinked (1200 μJoules), prehybridized and hybridized in 5×SSPE (1×SSPE is 0.18 M NaCl/10 mM sodium phosphate, pH 7.7, 0.1 mM EDTA), 5×Denhardt's, 0.5% SDS, and 20 μg/ml denatured salmon sperm DNA as carrier. Hybridizations were carried out at 42° C. for 16 hr with 2×10^6 cpm/ml of the ^ 32 P-ARBP1. Blots were washed several times in 2×SSC with 0.1% SDS at room temperature followed by 1×SSC/0.1% SDS, 65° C., and exposed on Kodak X-OMAT with two Dupont Lightning Plus intensifying screens at -70° C. Bands were scored as (+) if clearly visible after overnight exposure, (+/-) if visible after 3 day exposure, and (++) if detectable after 6 hr.
(§2) A panel of tumor cell lines was tested for AR RNA levels both before and after 24 hour induction with TPA. With but a few exceptions, the only sources of detectable AR RNA were in human breast cancer lines treated with TPA.

The next series deals with AR RNA in BT-476 cells. As to the kind of experiment: Northern blot of AR RNA, tumor cell line panel. The settings on record: BT-476, 24 hour induction with TPA. On the set-up: key: +: clearly visible after overnight exposure; +/-: visible after 3 day exposure; ++: detectable after 6 hr. As to the method:
as §1, §2

In series [3] the test system is AR RNA in HBL-100 (HTB 124) cells. In words: Northern blot of AR RNA, tumor cell line panel. On the set-up: key: +: clearly visible after overnight exposure; +/-: visible after 3 day exposure; ++: detectable after 6 hr. As to conditions: 24 hour induction with TPA. As to the method: as §1, §2
The subject of series [4] is AR RNA in HEPM (CRL 1486) cells. As to the kind of experiment: Northern blot of AR RNA, tumor cell line panel. On the set-up: key: +: clearly visible after overnight exposure; +/-: visible after 3 day exposure; ++: detectable after 6 hr. The settings on record: 24 hour induction with TPA. The procedure:
as §1, §2

Series [5] concerns AR RNA in HUF foreskin fibroblast cells. In words: Northern blot of AR RNA, tumor cell line panel. More on the design: key: +: clearly visible after overnight exposure; +/-: visible after 3 day exposure; ++: detectable after 6 hr. The settings on record: 24 hour induction with TPA. The procedure:
as §1, §2

Series [6] concerns AR RNA in JEG-3 (HTB 36) cells. In words: Northern blot of AR RNA, tumor cell line panel. On the set-up: key: +: clearly visible after overnight exposure; +/-: visible after 3 day exposure; ++: detectable after 6 hr. The settings on record: 24 hour induction with TPA. The procedure:
as §1, §2

For series [7], the system named is AR RNA in MDA-MB-157 (HTB 24) cells. As to the kind of experiment: Northern blot of AR RNA, tumor cell line panel. More on the design: key: +: clearly visible after overnight exposure; +/-: visible after 3 day exposure; ++: detectable after 6 hr. The settings on record: 24 hour induction with TPA. The procedure: as §1, §2
In series [8] the test system is AR RNA in MDA-MB-361 (HTB 27) cells. As to the kind of experiment: Northern blot of AR RNA, tumor cell line panel. More on the design: key: +: clearly visible after overnight exposure; +/-: visible after 3 day exposure; ++: detectable after 6 hr. As to conditions: 24 hour induction with TPA. The procedure:
as §1, §2

In series [9] the test system is AR RNA in SK-BR-3 (HTB 30) cells. As to the kind of experiment: Northern blot of AR RNA, tumor cell line panel. More on the design: key: +: clearly visible after overnight exposure; +/-: visible after 3 day exposure; ++: detectable after 6 hr. As to conditions: 24 hour induction with TPA. As to the method: as §1, §2
Series [10] concerns AR 5' flanking region driving CAT gene in MCF-7 cells. As to the kind of experiment: CAT assay, AR 5' regulatory region/CAT constructs transiently introduced into MCF-7 cells. As to the method: MCF-7 cells were grown as described in Section 6.2.1 supra. For each assay, 1-2×10^6 cells were plated in a 100 mm dish in 10 ml media, and 24 hours later, 20 μg calcium phosphate precipitated supercoiled plasmid DNA was added to the cells (Southern and Berg, 1982). The cells were rinsed with fresh media 4 hours after transfection and subjected to a 25% glycerol shock for 90 seconds. Cells were again rinsed and overlayed with 20 ml fresh media containing 0 or 100ng/ml TPA. Cells were washed and harvested 40 hours after glycerol shock and lysed by sonication in 100 μl 1 0.25 M Tris-HCl (pH 7.8). CAT activity was assayed essentially as detailed by Gorman et al. (1982). Cell extract (3-50 μl) was added to […] ^14 C-chloramphenicol (NEN), in a 150 μl reaction volume of 0.5 M Tris (pH 7.8), 0.5 mM AcetylCoA. The reactions were incubated at 37° C. for 2 hours, extracted with 1 ml ethyl acetate and developed on silica gel TLC plates with CHCl3 :1-butanol (95:5). TLC plates were dried and autoradiographed. The acetylated and unacetylated ^14 C-chloramphenicol was quantitated by counting excised spots in Optifluor. Units of CAT enzymatic activity were calculated as μg chloramphenicol acetylated per hour per μg protein in the cell extract.
Primer extension was performed on MCF-7 RNA with 2 separate oligonucleotides from exon 1. […]

The subject of series [11] is transcription of AR in MCF-7 cells. In words: Nuclear run-off, transcription of AR. As to conditions: in response to TPA.
The subject of another series is MCF-7 cells. As to the kind of experiment: Morphology and cell number of MCF-7 cells. The settings on record: MCF-7 cells compared to untreated cells. An excerpt:
TPA induces dramatic morphological changes in a dose-dependent manner. Following TPA treatment, MCF-7 cells lose their well defined morphology, become rounded, and spread out.

Where two headings read alike, the source gives them in different places.

As to `C=C[C@@]1(C)CC(=O)[C@]2(O)[C@@]3(C)[C@@H](O)CCC(C)(C)[C@@H]3[C@H](O)[C@H](OC(C)=O)[C@@]2(C)O1` [Forskolin], the “AR mRNA” value in series [1] (MCF-7 cells, 25 uM for 4 hours) is reported as “marked stimulation”.
Take `CCCCCCCCCCCCCC(=O)O[C@@H]1[C@@H](C)[C@@]2(O)[C@@H](C=C(CO)C[C@]3(O)C(=O)C(C)=C[C@@H]23)[C@@H]2C(C)(C)[C@]12OC(C)=O` [TPA, 12-0-tetradecanoyl-phorbol-13-acetate]: the “time after treatment at which increase in the 1.4 kb AR RNA species was seen” value in series [1] (MCF-7 cells treated with TPA for 0-48 hours) is at most 1 h. The “AR RNA Level, TPA INDUCED” value in series [2] is “+”; in the series on AR RNA in BT-476 cells, “+”; in [3], “+”; in [4] it was “+/-”; in series [5], “+/-”; in series [6], “+/-”. Besides, the “AR RNA Level, TPA INDUCED” value is on record as “++” in series [7], “++” in [8] and “+” in [9]. For the same compound, the fold induction at 0.1 µg/mL in series [10] (MCF7, 40 h, pXARE1CAT (-648 to +40) in MCF-7 cells, addition of TPA, read-out: stimulation of CAT activity) was in the range of 6 to 7; in series [10] (MCF7, deletion mutants E1a-E1h in MCF-7 cells, 40 hour treatment with 100 ng/ml TPA, read-out: enhanced expression of 5' CAT deletion constructs) it was 3.5 to 7. The “increased transcription of AR” value in series [11] is recorded as 3-5 fold. Besides, the “effect on cell number” value in the series on MCF-7 cells was “dose-dependent reduction in cell number”.
